Experiments:
[1] = test system: Staphylococcus aureus (S. aureus) 11540 strain; assay: standard microdilution assay, minimum inhibitory concentration (MIC); assay type: cell-based
Experimental: (§1) The in vitro activity of the compounds of the present disclosure can be determined. Antimicrobial testing is typically performed to determine the minimum inhibitory concentration (MIC). Minimum inhibitory concentrations (MICs) are determined by the microdilution method in a final volume of 100 μl according to protocols outlined by The Clinical and Laboratory Standards Institute (CLSI). Performance standards for reference strains are assessed within the same experimental design to maintain quality control. See, for example, Clinical Laboratory Standards Institute: Methods for dilution antimicrobial susceptibility tests for bacteria that grow aerobically M7-A8. Approved Standard-Eighth Edition. Wayne, Pa.: CLSI; December 2008; and Clinical Laboratory Standards Institute: Performance Standards for Antimicrobial Susceptibility Testing M100-S20; Approved Standard-Twentieth Edition. Wayne, Pa.: CLSI; June 2010. The compounds of the present disclosure were tested for antimicrobial activity. The Compounds 1-149 were run against Eschericia coli (E. Coli) strain ATCC25922 and against Staphylococcus aureus (S. aureus) 11540 strain using a standard microdilution assay to determine minimum inhibitory concentrations (MICs). […] It will be recognized by one skilled in the art that the compounds can be assessed against other bacterial organisms and that the presentation of data for activity against Eschericia coli and Staphylococcus aureus are illustrative and in no way is intended to limit the scope of the present disclosure. The compounds of the present disclosure can be assayed against a range of other microorganisms depending upon the performance activity desired to be gathered. Furthermore, the “+” and “−” representation and the selection of a cutoff value of 16 micrograms/mL is also illustrative and in no way is intended to limit the scope of the present disclosure.

[2] = test system: Eschericia coli (E. Coli) strain ATCC25922; assay: as above; assay type: cell-based; details: Escherichia coli
Experimental: as §1

| SMILES | MIC ([1]; Table 2, 11540 strain) | MIC ([2]; Table 2, strain ATCC25922) | MIC ([1]; Table 2a) | MIC ([2]; ATCC25922, Table 2a) |
| --- | --- | --- | --- | --- |
| CC(=N)NC[C@H](CCNC(=N)N)OCc1ccc(-n2cc3cc(-c4cc(CCC[C@H](C)N)cc(Cl)c4F)[nH]c3nc2=O)cc1 [Compound 175] |  |  | ≤ 16 µg/mL | ≤ 16 µg/mL |
| C[C@H](NCCCNC(=N)N)c1ccc(-n2cc3cc(-c4cc([C@@H]5CC[C@@H](CN)O5)cc(Cl)c4F)[nH]c3nc2=O)cc1 [Compound 148] | ≤ 16 µg/mL | ≤ 16 µg/mL |  |  |
| C[C@H](N)CCCc1cc(-c2[nH]c3nc(=O)n(-c4ccc([C@H](C)NCCCNC(=N)N)cc4)cc3c2[N+](=O)[O-])c(F)c(Cl)c1[N+](=O)[O-] [Compound 110] | > 16 µg/mL | > 16 µg/mL |  |  |
| N=C(N)NCC[C@H](CNc1ccccn1)OCc1ccc(-n2cc3cc(CCNC4CCNCC4)[nH]c3nc2=O)cc1 [Compound 105] | > 16 µg/mL | > 16 µg/mL |  |  |
| CC(=N)NCC[C@@H](CNC(C)=N)OCc1ccc(-n2cc3cc(-c4cc(CCC[C@H](C)N)cc(Cl)c4F)[nH]c3nc2=O)cc1 [Compound 173] |  |  | ≤ 16 µg/mL | ≤ 16 µg/mL |
| C=C[C@H](N)CCCc1cc(Cl)c(F)c(-c2cc3cn(-c4ccc(CO[C@H](CCNC(=N)N)CNC(=N)N)cc4)c(=O)nc3[nH]2)c1 [Compound 160] |  |  | ≤ 16 µg/mL | ≤ 16 µg/mL |
| O=c1nc2[nH]c(CCNC3CCNCC3)cc2cn1-c1ccc([C@@H]2CCC[C@@H](CCNc3ncc[nH]3)N2)cc1 [Compound 95] | ≤ 16 µg/mL | ≤ 16 µg/mL |  |  |
| C[C@H](N)CCCc1cc(Cl)c(F)c(-c2cc3cn(-c4ccc(CN[C@H](CCNC(=N)N)Cn5ccc(=O)[nH]c5=O)cc4)c(=O)nc3[nH]2)c1 [Compound 7] | ≤ 16 µg/mL | ≤ 16 µg/mL |  |  |
| C[C@H](N)CCCc1cc(Cl)c(F)c(-c2cc3cn(-c4ccc([C@H]5CC[C@@H](CCNC(=N)N)O5)cc4)c(=O)nc3[nH]2)c1 [Compound 73] | ≤ 16 µg/mL | ≤ 16 µg/mL |  |  |
| C[C@H](N)CCCc1cc(Cl)c(F)c(-c2cc3cn(-c4ccc([C@H]5C[C@H](CCNC(=N)N)C[C@H](CN)O5)cc4)c(=O)nc3[nH]2)c1 [Compound 96] | ≤ 16 µg/mL | ≤ 16 µg/mL |  |  |
| N=C(N)NCC[C@H](CNc1ccccn1)OCc1ccc(-n2cc3cc(C4CCNC4)[nH]c3nc2=O)cc1 (stereo partly shown) [Compound 103] | > 16 µg/mL | > 16 µg/mL |  |  |
| CC(C)(N)CCCc1cc(Cl)c(F)c(-c2cc3cn(-c4ccc(CO[C@H](CCNC(=N)N)CNC(=N)N)cc4)c(=O)nc3[nH]2)c1 [Compound 166] |  |  | ≤ 16 µg/mL | ≤ 16 µg/mL |
| C[C@H](N)CCCc1cc(Cl)c(F)c(-c2cc3cn(-c4ccc([C@@H]5CCC[C@@H](CCNC(=N)CCl)N5)cc4)c(=O)nc3[nH]2)c1 [Compound 86] | ≤ 16 µg/mL | ≤ 16 µg/mL |  |  |
| N=C(CF)NCC[C@@H]1CCC[C@@H](c2ccc(-n3cc4cc(-c5cc(CCC[C@@H](N)CO)cc(Cl)c5F)[nH]c4nc3=O)cc2)N1 [Compound 150] | ≤ 16 µg/mL | ≤ 16 µg/mL |  |  |
| C[C@H](N)CCCc1cc(Cl)c(F)c(-c2cc3cn(-c4ccc(CN[C@H](CCNC(=N)N)CNC(=N)N)cc4)c(=O)nc3[nH]2)c1 [Compound 4] | ≤ 16 µg/mL | ≤ 16 µg/mL |  |  |
| C[C@H](N)CCCc1cc(Cl)c(F)c(-c2cc3cn(-c4ccc(CO[C@H](CCNC(=N)N)CNC(=N)N)cc4)c(=O)nc3[nH]2)c1 [Compound 64] | ≤ 16 µg/mL | ≤ 16 µg/mL |  |  |
| Cc1nc(NCC[C@@H]2CCC[C@@H](c3ccc(-n4cc5cc(-c6cc(CCC[C@H](C)N)cc(OC(F)(F)F)c6F)[nH]c5nc4=O)cc3)N2)[nH]c1C [Compound 42] | ≤ 16 µg/mL | ≤ 16 µg/mL |  |  |
| C[C@H](N)CCCc1cc(Cl)c(F)c(-c2cc3cn(-c4ccc(CN[C@H](CCNC(=N)N)CNc5cccnc5)cc4)c(=O)nc3[nH]2)c1 [Compound 54] | ≤ 16 µg/mL | ≤ 16 µg/mL |  |  |
| C[C@H](N)CCCc1cc(Cl)c(F)c(-c2cc3cn(-c4ccc(CN[C@H](CCNC(=N)N)CNc5ccc(=O)[nH]n5)cc4)c(=O)nc3[nH]2)c1 [Compound 40] | ≤ 16 µg/mL | ≤ 16 µg/mL |  |  |
| CCNC[C@@H](CCNC(=N)N)NCc1ccc(-n2cc3cc(-c4cc(CCC[C@H](C)N)cc(Cl)c4F)[nH]c3nc2=O)cc1 [Compound 30] | ≤ 16 µg/mL | ≤ 16 µg/mL |  |  |
| CC1=NCC[C@@H]2CCC[C@@H](c3ccc(-n4cc5cc(C6CCNC6)[nH]c5nc4=O)cc3)N12 (stereo partly shown) [Compound 116] | > 16 µg/mL | > 16 µg/mL |  |  |
| C[C@H](N)CCCc1cc(Cl)c(F)c(-c2cc3cn(-c4ccc(CO[C@@H](CCNC(=N)N)CNc5nccs5)cc4)c(=O)nc3[nH]2)c1 [Compound 60] | ≤ 16 µg/mL | ≤ 16 µg/mL |  |  |
| C[C@H](N)CCCc1cc(Cl)c(F)c(-c2cc3cn(-c4ccc([C@H]5N[C@H](CCNC(=N)N)CCO5)cc4)c(=O)nc3[nH]2)c1 [Compound 31] | ≤ 16 µg/mL | ≤ 16 µg/mL |  |  |
| C[C@H](N)CCCc1cc(Cl)c(F)c(-c2cc3cn(-c4ccc([C@H]5CCC[C@H](CCNC6=NCCC6)N5)cc4)c(=O)nc3[nH]2)c1 [Compound 29] | ≤ 16 µg/mL | ≤ 16 µg/mL |  |  |
| C[C@H](N)CCCc1cc(Cl)c(F)c(-c2cc3cn(-c4ccc([C@H]5CC(NC6=NCCN6)C[C@H](CCNC6=NCCN6)O5)cc4)c(=O)nc3[nH]2)c1 (stereo partly shown) [Compound 138] | ≤ 16 µg/mL | ≤ 16 µg/mL |  |  |
| Cc1nnc(NC[C@@H](CCNC(=N)N)NCc2ccc(-n3cc4cc(-c5cc(CCC[C@H](C)N)cc(Cl)c5F)[nH]c4nc3=O)cc2)o1 [Compound 51] | ≤ 16 µg/mL | ≤ 16 µg/mL |  |  |
| C[C@H](N)CCCc1cc(Cl)c(F)c(-c2cc3cn(-c4ccc(N5CCO[C@H](CCNC(=N)N)C5)cc4)c(=O)nc3[nH]2)c1 [Compound 133] | ≤ 16 µg/mL | ≤ 16 µg/mL |  |  |

Continued, values first:

| MIC ([1]; Table 2, 11540 strain) | MIC ([2]; Table 2, strain ATCC25922) | MIC ([1]; Table 2a) | MIC ([2]; ATCC25922, Table 2a) | SMILES |
| --- | --- | --- | --- | --- |
| ≤ 16 µg/mL | ≤ 16 µg/mL |  |  | C[C@H](N)CCCc1cc(Cl)c(F)c(-c2cc3cn(-c4ccc([C@@H]5C[C@H](Nc6nccs6)C[C@@H](CCNC(=N)N)O5)cc4)c(=O)nc3[nH]2)c1 [Compound 108] |
| ≤ 16 µg/mL | ≤ 16 µg/mL |  |  | C[C@H](N)CCCc1cc(Cl)c(F)c(-c2cc3cn(-c4ccc([C@@H]5CC[C@@H](CNC(=N)N)O5)cc4)c(=O)nc3[nH]2)c1 [Compound 69] |
| ≤ 16 µg/mL | ≤ 16 µg/mL |  |  | COc1ncccc1NC[C@@H](CCNC(=N)N)NCc1ccc(-n2cc3cc(-c4cc(CCC[C@H](C)N)cc(Cl)c4F)[nH]c3nc2=O)cc1 [Compound 63] |
| > 16 µg/mL | > 16 µg/mL |  |  | C[C@H](N)CCCc1cc(Cl)c(F)c(-c2cc3cn(-c4ccc([C@@H]5CCC[C@@H](CNCc6c[nH]nn6)N5)cc4)c(=O)nc3[nH]2)c1 [Compound 18] |
| ≤ 16 µg/mL | ≤ 16 µg/mL |  |  | C[C@H](NCCCNC(=N)N)c1ccc(-n2cc3cc(-c4cc([C@@H]5CC[C@H](CN)O5)cc(Cl)c4F)[nH]c3nc2=O)cc1 [Compound 149] |
| ≤ 16 µg/mL | ≤ 16 µg/mL |  |  | C[C@H](N)CCCc1cc(Cl)c(F)c(-c2cc3cn(-c4ccc(CN[C@H](CCNC(=N)N)CNc5cc(F)ccn5)cc4)c(=O)nc3[nH]2)c1 [Compound 91] |
| ≤ 16 µg/mL | ≤ 16 µg/mL |  |  | CC1=NCC[C@H]2CCC[C@H](c3ccc(-n4cc5cc(-c6cc(CCC[C@H](C)N)cc(Cl)c6F)[nH]c5nc4=O)cc3)N12 [Compound 2] |
| > 16 µg/mL | ≤ 16 µg/mL |  |  | O=c1nc2[nH]c(C3CCNC3)cc2cn1-c1ccc([C@@H]2CCC[C@@H](CCc3ncc[nH]3)N2)cc1 (stereo partly shown) [Compound 130] |
| ≤ 16 µg/mL | ≤ 16 µg/mL |  |  | C[C@H](N)CCCc1cc(Cl)c(F)c(-c2cc3cn(-c4ccc(CN[C@@H](CCO)CCNC(=N)N)cc4)c(=O)nc3[nH]2)c1 [Compound 13] |
| ≤ 16 µg/mL | ≤ 16 µg/mL |  |  | C[C@H](N)CCCc1cc(Cl)c(F)c(-c2cc3cn(-c4ccc(CN[C@H](CCNC(=N)N)CNc5ncccc5F)cc4)c(=O)nc3[nH]2)c1 [Compound 106] |
| > 16 µg/mL | ≤ 16 µg/mL |  |  | O=c1nc2[nH]c(C3CCNC3)cc2cn1-c1ccc([C@@H]2CCC[C@@H](CCNc3ncc[nH]3)N2)cc1 (stereo partly shown) [Compound 94] |
| ≤ 16 µg/mL | > 16 µg/mL |  |  | C[C@H](N)CCCc1cc(Cl)c(F)c(-c2[nH]c3nc(=O)n(-c4ccc(CN[C@H](C)CCNC(=N)N)cc4)cc3c2[N+](=O)[O-])c1 [Compound 109] |
| ≤ 16 µg/mL | ≤ 16 µg/mL |  |  | C[C@H](N)CCCc1cc(Cl)c(F)c(-c2cc3cn(-c4ccc(CN[C@H](CCNC(=N)N)CNc5ccccn5)cc4)c(=O)nc3[nH]2)c1 [Compound 21] |
| ≤ 16 µg/mL | ≤ 16 µg/mL |  |  | C[C@H](N)CCCc1cc(Cl)c(F)c(-c2cc3cn(-c4ccc([C@H]5CC(N)C[C@H](CCNC(=N)N)O5)cc4)c(=O)nc3[nH]2)c1 (stereo partly shown) [Compound 119] |
| ≤ 16 µg/mL | ≤ 16 µg/mL |  |  | C[C@H](N)CCCc1cc(Cl)c(F)c(-c2cc3cn(-c4ccc([C@H]5CC(NC(=N)N)C[C@H](CCNC(=N)N)O5)cc4)c(=O)nc3[nH]2)c1 (stereo partly shown) [Compound 128] |
| ≤ 16 µg/mL | ≤ 16 µg/mL |  |  | CC(=N)NCC[C@H]1CCC[C@H](c2ccc(-n3cc4cc(-c5cc(CCC[C@H](C)N)cc(Cl)c5F)[nH]c4nc3=O)cc2)N1 [Compound 1] |
| ≤ 16 µg/mL | ≤ 16 µg/mL |  |  | C=C[C@@H](CCNC(=N)N)NCc1ccc(-n2cc3cc(-c4cc([C@H]5CC[C@@H](CN)O5)cc(Cl)c4F)[nH]c3nc2=O)cc1 [Compound 140] |

— patent US10947237B2, “Antimicrobial compounds and methods of making and using the same” (BIOVERSYS AG, priority 2015, dated 2021)
